Here are results for eight molecules from patent US20240343694A1, “PYRIMIDINE DERIVATIVE, METHOD FOR PREPARING SAME, AND PHARMACEUTICAL COMPOSITION FOR PREVENTING OR TREATING CANCER COMPRISING SAME AS ACTIVE INGREDIENT” (KOREA RESERARCH INSTITUTE OF CHEMICAL TECHNOLOGY, priority 2021, published 2024).

Holding throughout (format): biochemical
What all share (conditions): recombinant enzyme, 37° C. for 2 hours

In assay [1] the target is EGFR del19 (Homo sapiens (Human), UniProt P00533, DEL746-750). Kind of assay: HTRF inhibitory activity against EGFR mutant enzyme (EGFR del19). On the procedure: (§1) The activity of the compounds of the present invention against EGFR mutant enzymes was measured using the HTRF system purchased from Cisbio as follows. For an EGFR mutant enzyme, the EGFR del19 enzyme was a recombinant protein purchased from Carna Biosciences, and the EGFR A763_Y764insFHEA enzyme was a recombinant protein purchased from SignalChem, respectively.
EGFR del19, sequence (P00533 other isoform, or with tags, fused parts or gaps del 1-668/del 746-750 limits assumed): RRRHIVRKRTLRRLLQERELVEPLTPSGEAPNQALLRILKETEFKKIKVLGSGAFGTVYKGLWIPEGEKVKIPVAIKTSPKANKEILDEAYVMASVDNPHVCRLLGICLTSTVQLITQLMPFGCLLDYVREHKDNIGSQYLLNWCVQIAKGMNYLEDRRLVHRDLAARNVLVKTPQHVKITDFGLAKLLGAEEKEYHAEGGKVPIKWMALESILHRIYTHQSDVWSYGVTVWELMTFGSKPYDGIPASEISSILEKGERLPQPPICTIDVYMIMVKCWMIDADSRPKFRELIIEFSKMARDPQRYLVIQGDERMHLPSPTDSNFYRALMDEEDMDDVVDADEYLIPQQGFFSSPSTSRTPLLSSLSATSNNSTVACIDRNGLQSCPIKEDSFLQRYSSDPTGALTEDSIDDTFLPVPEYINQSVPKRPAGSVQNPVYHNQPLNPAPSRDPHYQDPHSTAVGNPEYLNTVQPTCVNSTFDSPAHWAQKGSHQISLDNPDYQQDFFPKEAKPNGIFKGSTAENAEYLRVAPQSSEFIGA
(§2) The composition of the assay buffer used for activity measurement was 50 mM tris-HCl pH 7.5, 100 mM NaCl, 7.5 mM MgCl2, 3 mM KCl, 0.01% tween 20, 0.1% BSA, and 1 mM DTT. An enzymatic reaction was performed using a peptide substrate labeled with ATP at a concentration of […] and biotin at a concentration of […]. The analysis of the inhibitory effect of the compounds on EGFR activity was performed according to the following method. • Component 1:4 μL of EGFR mutant enzyme • Component 2:2 μL of compound solution • Component 3:4 μL of ATP and a biotin labeled peptide
(§3) The enzyme reaction begins by first mixing component 1 and component 2 and then adding component 3 thereto. After the reaction at 37° C. for 2 hours, […] of a measurement solution consisting of streptavidin-XL665 and a europium-labeled anti-phosphotyrosine antibody purchased from Cisbio was added to the enzyme reaction solution and reacted at room temperature for 1 hour. Finally, the ratio of fluorescence values at 615 nm and 665 nm was measured using Perkin-Elmer's Envision instrument to calculate enzyme activity and confirm the inhibitory ability of the compounds. The measured values at 7 compound concentrations were analyzed using the Prism program (version 5.01, Graphpad Software, Inc.), and the IC50 (μM) values, which are measures of the compounds' inhibitory activity, were calculated.
(In general: Time-resolved FRET reads energy transfer from a long-lived donor to a nearby acceptor.)

Assay [2] deals with EGFR A763_Y764insFHEA (Homo sapiens (Human), UniProt P00533, INS763FHEA). Kind of assay: HTRF inhibitory activity against EGFR mutant enzyme (EGFR A763_Y764insFHEA). On the procedure:
as §1, §2, §3

Assay [3] deals with HER2 A775_G776insYVMA (Homo sapiens (Human), UniProt P04626, INS775YVMA). Kind of assay: HTRF inhibitory activity against HER2 mutant enzyme. On the procedure:
The activity of the compounds of the present invention against HER mutant enzymes was measured using the HTRF system purchased by Cisbio as follows. As a HER2 mutant enzyme, the HER2 A775_G776insYVMA mutant enzyme was used by purchasing a recombinant protein provided by Carna Biosciences.
as §2, with “mM DTT. In addition thereto, the enzymatic reaction” for “mM DTT. An enzymatic reaction”, “of the activity inhibitory effect” for “of the inhibitory effect”, “compounds on HER2 A775_G776insYVMA mutation was performed” for “compounds on EGFR activity was performed”, “μL of HER2 A775_G776insYVMA mutant enzyme” for “μL of EGFR mutant enzyme”
as §3, with “Finally, the ratio of fluorescence values at 615 nm and 665 nm was measured using Perkin-Elmer's Envision instrument to calculate enzyme activity and confirm the inhibitory ability of the compounds.” left out, “ability,” for “activity,”

HER2 A775_G776insYVMA, sequence (P04626 other isoform, or with tags, fused parts or gaps del 1-675/ins YVMA behind 775 limits assumed): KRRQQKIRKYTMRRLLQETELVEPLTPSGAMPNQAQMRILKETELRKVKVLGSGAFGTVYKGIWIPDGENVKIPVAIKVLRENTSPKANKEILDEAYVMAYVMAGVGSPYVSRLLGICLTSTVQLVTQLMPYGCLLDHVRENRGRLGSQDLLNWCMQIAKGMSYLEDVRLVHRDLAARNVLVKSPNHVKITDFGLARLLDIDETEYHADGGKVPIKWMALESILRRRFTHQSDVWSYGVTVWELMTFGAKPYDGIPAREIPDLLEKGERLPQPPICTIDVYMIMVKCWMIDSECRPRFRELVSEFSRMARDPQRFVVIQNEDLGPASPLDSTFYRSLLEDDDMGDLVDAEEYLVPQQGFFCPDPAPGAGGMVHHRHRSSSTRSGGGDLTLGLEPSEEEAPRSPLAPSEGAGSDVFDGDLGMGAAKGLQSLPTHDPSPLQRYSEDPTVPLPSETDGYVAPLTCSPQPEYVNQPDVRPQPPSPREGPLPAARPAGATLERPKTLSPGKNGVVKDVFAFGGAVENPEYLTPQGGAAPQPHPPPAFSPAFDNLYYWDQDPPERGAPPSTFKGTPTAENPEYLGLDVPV
EGFR A763_Y764insFHEA, sequence (P00533 other isoform, or with tags, fused parts or gaps del 1-694/ins FHEA behind 763 limits assumed): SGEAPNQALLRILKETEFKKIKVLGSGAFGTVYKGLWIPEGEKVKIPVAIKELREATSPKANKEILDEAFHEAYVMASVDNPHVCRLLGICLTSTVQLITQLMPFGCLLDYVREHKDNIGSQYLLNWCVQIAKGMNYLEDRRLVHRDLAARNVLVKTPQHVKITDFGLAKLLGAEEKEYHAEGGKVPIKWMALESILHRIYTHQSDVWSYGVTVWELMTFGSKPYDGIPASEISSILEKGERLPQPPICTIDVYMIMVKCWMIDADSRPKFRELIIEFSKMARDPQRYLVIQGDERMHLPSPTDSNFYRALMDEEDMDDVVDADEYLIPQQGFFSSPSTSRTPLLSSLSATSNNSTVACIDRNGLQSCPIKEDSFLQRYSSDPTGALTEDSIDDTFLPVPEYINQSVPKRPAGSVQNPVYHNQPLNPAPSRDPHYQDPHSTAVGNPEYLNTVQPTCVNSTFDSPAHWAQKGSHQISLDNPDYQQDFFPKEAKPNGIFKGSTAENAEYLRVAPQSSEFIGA

For `C=CC(=O)Nc1cc(Nc2ncc(Cl)c(Nc3cccc(CC)c3NS(=O)(=O)CC)n2)c(OC)cc1N(C)CCN(C)C` [Example 42, N-(5-((5-chloro-4-((3-ethyl-2-(ethylsulfonamido)phenyl)amino)pyrimidin-2-yl)amino)-2-((2-(dimethylamino)ethyl)(methyl)amino)-4-methoxyphenyl)acrylamide], the IC50 in assay [1] is under 1 nM; in assay [2], under 1 nM; in assay [3] it was 6 nM.

Regarding `C=CC(=O)Nc1cc(Nc2ncc(Cl)c(Nc3ccc(C)c(C)c3NS(C)(=O)=O)n2)c(OC)cc1N(C)CCN(C)C` [Example 44, N-(5-((5-chloro-4-((3,4-dimethyl-2-(methylsulfonamido)phenyl)amino)pyrimidin-2-yl)amino)-2-((2-(dimethylamino)ethyl)(methyl)amino)-4-methoxyphenyl)acrylamide], the IC50 in assay [1] was under 1 nM; in assay [2], under 1 nM; in assay [3], 6 nM.

Turning to `C=CC(=O)Nc1cc(Nc2ncc(C(=O)OC)c(Nc3cccc4c3N(S(C)(=O)=O)CCC4)n2)c(OC)cc1N(C)CCN(C)C` [Example 51, methyl 2-((5-acrylamido-4-((2-(dimethylamino)ethyl)(methyl)amino)-2-methoxyphenyl)amino)-4-((1-(methylsulfonyl)-1,2,3,4-tetrahydroquinolin-8-yl)amino)pyrimidin-5-carboxylate], the IC50 in assay [1] is under 1 nM; in assay [2] it was under 1 nM; in assay [3], 30 nM.

In the case of `C=CC(=O)Nc1cc(Nc2ncc(C(=O)OC(C)C)c(Nc3cccc4c3N(S(C)(=O)=O)CCC4)n2)c(OC)cc1N(C)CCN(C)C` [Example 52, isopropyl 2-((5-acrylamido-4-((2-(dimethylamino)ethyl)(methyl)amino)-2-methoxyphenyl)amino)-4-((1-(methylsulfonyl)-1,2,3,4-tetrahydroquinolin-8-yl)amino)pyrimidin-5-carboxylate], the concentration for half-maximal inhibition (IC50) was under 1 nM in assay [1], under 1 nM in assay [2] and 4 nM in assay [3].

Regarding `C=C(F)C(=O)Nc1cc(Nc2ncc(Cl)c(Nc3cccc4c3N(S(C)(=O)=O)CCC4)n2)c(OC)cc1N(C)CCN(C)C` [Example 54, N-(5-((5-chloro-4-((1-(methylsulfonyl)-1,2,3,4-tetrahydroquinolin-8-yl)amino)pyrimidin-2-yl)amino)-2-((2-(dimethylamino)ethyl)(methyl)amino)-4-methoxyphenyl)-2-fluoroacrylamide], the IC50 was under 1 nM in assay [1], under 1 nM in assay [2] and 10 nM in assay [3].

For `C=CC(=O)Nc1cc(Nc2ncc(C(=O)OC)c(Nc3cccc4c3N(S(C)(=O)=O)CC4)n2)c(OC)cc1N(C)CCN(C)C` [Example 60, methyl 2-((5-acrylamido-4-((2-(dimethylamino)ethyl)(methyl)amino)-2-methoxyphenyl)amino)-4-((1-(methylsulfonyl)indolin-7-yl)amino)pyrimidin-5-carboxylate], the IC50 in assay [1] is under 1 nM; in assay [2], under 1 nM; in assay [3], 10 nM.

Take `C=CC(=O)Nc1cc(Nc2ncc(Cl)c(Nc3cccc4ccn(S(C)(=O)=O)c34)n2)c(OC)cc1N(C)CCN(C)C` [Example 67, N-(5-((5-chloro-4-((1-(methylsulfonyl)-1H-indol-7-yl)amino)pyrimidin-2-yl)amino)-2-((2-(dimethylamino)ethyl)(methyl)amino)-4-methoxyphenyl)acrylamide]: the half-inhibitory concentration (IC50) in assay [1] was under 1 nM; in assay [2], under 1 nM; in assay [3], 81 nM.

On to `C=CC(=O)Nc1cc(Nc2ncc(Cl)c(Nc3ccc4nccnc4c3N(C)S(C)(=O)=O)n2)c(OC)cc1N(C)CCN(C)C` [Example 68, N-(5-((5-chloro-4-((5-(N-methylmethylsulfonamido)quinoxalin-6-yl)amino)pyrimidin-2-yl)amino)-2-((2-(dimethylamino)ethyl)(methyl)amino)-4-methoxyphenyl)acrylamide], for which the IC50 was under 1 nM in assay [1], under 1 nM in assay [2] and 6 nM in assay [3].

The IC50 is the concentration at which inhibition is half-maximal.
